Source: ChEMBL document CHEMBL1138648, “Synthesis of new N-(2-(trifluoromethyl)pyridin-4-yl)anthranilic acid derivatives and their evaluation as anticancer agents” (2004)

Legend:
Type in all cases: functional
[1] = tested on: M14; experiment: Growth inhibitory activity against Melanoma M14 cell line was determined; conditions: Homo sapiens
[2] = tested on: K562; experiment: Growth inhibitory activity against Leukemia K-562 cell line was determined; conditions: Homo sapiens
[3] = tested on: U-251; experiment: Growth inhibitory activity against CNS cancer U251 cell line was determined; conditions: Homo sapiens
[4] = tested on: MOLT-4; experiment: Growth inhibitory activity against Leukemia MOLT-4 cell line was determined; conditions: Homo sapiens
[5] = tested on: UACC-62; experiment: Growth inhibitory activity against Melanoma UACC-62 cell line was determined; conditions: Homo sapiens
[6] = tested on: SF-268; experiment: Growth inhibitory activity against CNS cancer SF-268 cell line was determined; conditions: Homo sapiens
[7] = tested on: SF-295; experiment: Growth inhibitory activity against CNS cancer SF-295 cell line was determined; conditions: Homo sapiens
[8] = tested on: SNB-19; experiment: Growth inhibitory activity against CNS cancer SNB-19 cell line was determined; conditions: Homo sapiens
[9] = tested on: LOX IMVI; experiment: Growth inhibitory activity against Melanoma LOX IMVI cell line; conditions: Homo sapiens
[10] = tested on: SK-MEL-5; experiment: Growth inhibitory activity against Melanoma SK-MEL-5 cell line was determined; conditions: Homo sapiens
[11] = tested on: ACHN; experiment: Growth inhibitory activity against Renal cancer ACHN cell line was determined; conditions: Homo sapiens
[12] = tested on: HT-29; experiment: Growth inhibitory activity against colon cancer HT-29 cell line was determined; conditions: Homo sapiens
[13] = tested on: MDA-MB-435; experiment: Growth inhibitory activity against Breast cancer MDA-MB-435 cell line was determined; conditions: Homo sapiens
[14] = tested on: MDA-MB-231; experiment: Growth inhibitory activity against Breast cancer MDA-MB-231/ATCC cell line was determined; conditions: Homo sapiens
[15] = tested on: EKVX; experiment: Growth inhibitory activity against non small cell lung cancer EKVX cell line was determined; conditions: Homo sapiens
[16] = tested on: NCI-H460; experiment: Growth inhibitory activity against non small cell lung cancer H460 cell line was determined; conditions: Homo sapiens
[17] = tested on: NCI-H522; experiment: Growth inhibitory activity against non small cell lung cancer H522 cell line was determined; conditions: Homo sapiens
[18] = tested on: HOP-62; experiment: Growth inhibitory activity against non small cell lung cancer HOP-62 cell line was determined; conditions: Homo sapiens
[19] = tested on: NCI-H23; experiment: Growth inhibitory activity against non small cell lung cancer NCI-H23 cell line was determined; conditions: Homo sapiens
[20] = tested on: NCI-H226; experiment: Growth inhibitory activity against non small cell lung cancer NCI-H226 cell line was determined; conditions: Homo sapiens
[21] = tested on: A549; experiment: Growth inhibitory activity against non small cell lung cancer A549/ATCC cells; conditions: Homo sapiens
[22] = tested on: NCI-H322M; experiment: Growth inhibitory activity against non small cell lung cancer NCI-H322M cell line was determined; conditions: Homo sapiens
[23] = tested on: HOP-92; experiment: Growth inhibitory activity against non small cell lung cancer HOP-92 cell line was determined; conditions: Homo sapiens
[24] = tested on: UACC-257; experiment: Growth inhibitory activity against Melanoma UACC-257 cell line was determined; conditions: Homo sapiens
[25] = tested on: NCI-H460; experiment: In vitro percent of proliferation of vehicle treated NCI-H460 human lung cell lines was determined at 0.0010 M concentration
[26] = tested on: KM12; experiment: Growth inhibitory activity against colon cancer KM12 cell line was determined; conditions: Homo sapiens
[27] = tested on: MCF7; experiment: Growth inhibitory activity against Breast cancer MCF-7 cell line was determined; conditions: Homo sapiens
[28] = tested on: HL-60; experiment: Growth inhibitory activity against Leukemia HL-60(TB) cell line was determined; conditions: Homo sapiens
[29] = tested on: SK-MEL-28; experiment: Growth inhibitory activity against Melanoma SK-MEL-28 cell line was determined; conditions: Homo sapiens
[30] = tested on: 786-0; experiment: Growth inhibitory activity against Renal cancer 786-0 cell line was determined; conditions: Homo sapiens
[31] = tested on: SN12C; experiment: Growth inhibitory activity against Renal cancer SN12C cell line was determined; conditions: Homo sapiens
[32] = tested on: TK-10; experiment: Growth inhibitory activity against Renal cancer TK-10 cell line was determined; conditions: Homo sapiens
[33] = tested on: CAKI-1; experiment: Growth inhibitory activity against Renal cancer CAKI-1 cell line was determined; conditions: Homo sapiens
[34] = tested on: HCT-15; experiment: Growth inhibitory activity against colon cancer HCT-15 cell line was determined; conditions: Homo sapiens
[35] = tested on: SW-620; experiment: Growth inhibitory activity against colon cancer SW-620 cell line was determined; conditions: Homo sapiens
[36] = tested on: BT-549; experiment: Growth inhibitory activity against Breast cancer BT-549 cell line was determined; conditions: Homo sapiens
[37] = tested on: PC-3; experiment: Growth inhibitory activity against Prostate cancer PC-3 cell line was determined; conditions: Homo sapiens
[38] = tested on: RXF 393; experiment: Growth inhibitory activity against Renal cancer RXF 393 cell line was determined; conditions: Homo sapiens
[39] = tested on: HCT-116; experiment: Growth inhibitory activity against colon cancer HCT116 cell line was determined; conditions: Homo sapiens
[40] = tested on: Hs-578T; experiment: Growth inhibitory activity against Breast cancer HS 578T cell line was determined; conditions: Homo sapiens
[41] = tested on: COLO 205; experiment: Growth inhibitory activity against colon cancer COLO 205 cell line was determined; conditions: Homo sapiens
[42] = tested on: OVCAR-3; experiment: Growth inhibitory activity against Ovarian cancer OVCAR-3 cell line was determined; conditions: Homo sapiens
[43] = tested on: OVCAR-5; experiment: Growth inhibitory activity against Ovarian cancer OVCAR-5 cell line was determined; conditions: Homo sapiens
[44] = tested on: OVCAR-8; experiment: Growth inhibitory activity against Ovarian cancer OVCAR-8 cell line was determined; conditions: Homo sapiens
[45] = tested on: SF-268; experiment: In vitro percent of proliferation of vehicle treated SF-268 human CNS cell lines was determined at 0.0010 M concentration
[46] = tested on: MCF7; experiment: In vitro percent of proliferation of vehicle treated MCF-7 human breast cell lines was determined at 0.0010 M concentration
[47] = tested on: SF-539; experiment: Growth inhibitory activity against CNS cancer SF-539 cell line was determined; conditions: Homo sapiens
[48] = tested on: CCRF-CEM; experiment: Growth inhibitory activity against Leukemia CCRF-CEM cell line was determined; conditions: Homo sapiens
[49] = tested on: NCI/ADR-RES; experiment: Growth inhibitory activity against Breast cancer NCI/ADR-RES cell line was determined; conditions: Homo sapiens
[50] = tested on: RPMI-8226; experiment: Growth inhibitory activity against Leukemia RPMI-8226 cell line was determined; conditions: Homo sapiens
[51] = tested on: SR; experiment: Growth inhibitory activity against Leukemia SR cell line was determined; conditions: Homo sapiens
[52] = tested on: HCC 2998; experiment: Growth inhibitory activity against colon cancer HCC2998 cell line was determined; conditions: Homo sapiens
[53] = tested on: DU-145; experiment: Growth inhibitory activity against Prostate cancer DU-145 cell line was determined; conditions: Homo sapiens

Structure (SMILES): O=C(Oc1c(Cl)cc(Cl)cc1Cl)c1ccccc1Nc1ccnc(C(F)(F)F)c1
- GI50 [1]: 2100 nM
- GI50 [2]: 2400 nM
- GI50 [3]: 3000 nM
- GI50 [4]: 100000 nM
- GI50 [5]: 1700 nM
- GI50 [6]: 3.9 µM
- GI50 [7]: 4.2 µM
- GI50 [8]: 7.1 µM
- GI50 [9]: 2000 nM
- GI50 [10]: 3100 nM
- GI50 [11]: 2400 nM
- GI50 [12]: 4.6 µM
- GI50 [13]: 1600 nM
- GI50 [14]: 3200 nM
- GI50 [15]: 3.3 µM
- GI50 [16]: 3.4 µM
- GI50 [17]: 5.7 µM
- GI50 [18]: 2700 nM
- GI50 [19]: 2600 nM
- GI50 [20]: 5.9 µM
- GI50 [21]: 3.9 µM
- GI50 [22]: 20 µM
- GI50 [23]: 100 µM
- GI50 [24]: 12 µM
- Proliferation [25]: 9%
- GI50 [26]: 4.1 µM
- GI50 [27]: 4.7 µM
- GI50 [28]: 3.9 µM
- GI50 [29]: 24 µM
- GI50 [30]: 2.9 µM
- GI50 [31]: 3.1 µM
- GI50 [32]: 3.4 µM
- GI50 [33]: 7100 nM
- GI50 [34]: 2700 nM
- GI50 [35]: 4.6 µM
- GI50 [36]: 2.4 µM
- GI50 [37]: 15 µM
- GI50 [38]: 9.5 µM
- GI50 [39]: 1700 nM
- GI50 [40]: 2.6 µM
- GI50 [41]: 6.3 µM
- GI50 [42]: 4.3 µM
- GI50 [43]: 4.1 µM
- GI50 [44]: 3 µM
- Proliferation [45]: 55%
- Proliferation [46]: 12%

Structure (SMILES): O=C(Oc1cccc(Cl)c1)c1ccccc1Nc1ccnc(C(F)(F)F)c1
- GI50 [1]: 1800 nM
- GI50 [2]: 3200 nM
- GI50 [4]: 930 nM
- GI50 [5]: 2000 nM
- GI50 [6]: 3 µM
- GI50 [7]: 18 µM
- GI50 [47]: 2800 nM
- GI50 [48]: 890 nM
- GI50 [10]: 2600 nM
- GI50 [13]: 3000 nM
- GI50 [49]: 2200 nM
- GI50 [14]: 1700 nM
- GI50 [15]: 22 µM
- GI50 [16]: 11 µM
- GI50 [17]: 4.2 µM
- GI50 [18]: 25000 nM
- GI50 [19]: 2400 nM
- GI50 [20]: 2.1 µM
- GI50 [21]: 18 µM
- GI50 [22]: 23 µM
- GI50 [23]: 8.7 µM
- Proliferation [25]: 3%
- GI50 [26]: 9.5 µM
- GI50 [27]: 4.8 µM
- GI50 [28]: 13 µM
- GI50 [50]: 1800 nM
- GI50 [51]: 440 nM
- GI50 [30]: 3.5 µM
- GI50 [31]: 3 µM
- GI50 [32]: 85 µM
- GI50 [33]: 2100 nM
- GI50 [34]: 3700 nM
- GI50 [35]: 4.4 µM
- GI50 [36]: 6.8 µM
- GI50 [37]: 7.4 µM
- GI50 [39]: 1600 nM
- GI50 [40]: 21 µM
- GI50 [52]: 3.5 µM
- GI50 [42]: 3.8 µM
- GI50 [43]: 14 µM
- GI50 [44]: 3.5 µM
- GI50 [53]: 14 µM
- Proliferation [45]: 5%
- Proliferation [46]: 12%

Structure (SMILES): COc1cccc(OC(=O)c2ccccc2Nc2ccnc(C(F)(F)F)c2)c1
- GI50 [1]: 1300 nM
- GI50 [2]: 740 nM
- GI50 [3]: 2900 nM
- GI50 [4]: 690 nM
- GI50 [5]: 3100 nM
- GI50 [6]: 4.7 µM
- GI50 [7]: 2.5 µM
- GI50 [8]: 3.5 µM
- GI50 [9]: 1100 nM
- GI50 [10]: 2200 nM
- GI50 [11]: 3400 nM
- GI50 [12]: 3.7 µM
- GI50 [13]: 1000 nM
- GI50 [14]: 2100 nM
- GI50 [15]: 6.6 µM
- GI50 [16]: 4.1 µM
- GI50 [17]: 7.6 µM
- GI50 [18]: 2800 nM
- GI50 [19]: 2000 nM
- GI50 [20]: 8.1 µM
- GI50 [21]: 3.2 µM
- GI50 [22]: 7.4 µM
- GI50 [23]: 5.7 µM
- GI50 [24]: 5.4 µM
- Proliferation [25]: 13%
- GI50 [26]: 2.6 µM
- GI50 [27]: 7.6 µM
- GI50 [28]: 2.1 µM
- GI50 [50]: 1000 nM
- GI50 [29]: 12 µM
- GI50 [30]: 3.4 µM
- GI50 [31]: 5.4 µM
- GI50 [32]: 11 µM
- GI50 [33]: 2700 nM
- GI50 [34]: 2800 nM
- GI50 [35]: 4.4 µM
- GI50 [36]: 8.1 µM
- GI50 [37]: 3.2 µM
- GI50 [38]: 21 µM
- GI50 [39]: 1100 nM
- GI50 [40]: 4.9 µM
- GI50 [41]: 2.2 µM
- GI50 [42]: 1.6 µM
- GI50 [43]: 3.5 µM
- GI50 [44]: 3.6 µM
- Proliferation [45]: 43%
- Proliferation [46]: 42%

Structure (SMILES): O=C(O)c1ccccc1Nc1ccnc(C(F)(F)F)c1
- Proliferation [25]: 100%
- Proliferation [45]: 102%
- Proliferation [46]: 105%
